In one data set the test system is Rat (Lister). Nature of the data set: 5 Choice serial reaction time task. The format is in vivo. From the text: Another useful animal model for evaluating ampakine activity is the Five Choice Serial Reaction Time Task in Rats. This assay requires rats to provide a single nose poke in response to a light stimulus presented in one of five locations within a 9-hole chamber. With a correct response a reward is delivered that the rat collects from the food magazine at the rear of the chamber. The withdrawal of its head from the food magazine initiates a short inter-trial interval followed by the presentation of the next randomly presented stimulus. An incorrect response results in a time out period (non-reinforcement) followed by the initiation of a new trial. Groups of 12 rats were used in this study, and all rats received all treatments using a randomized sequence. For evaluation using this model, CX1739 was selected as the exemplary low impact ampakine, administered at doses of 3 and 10 mg/kg i.p. 20 min prior to the start of the study.

The test system of data set [1] is non-selective alpha1 adrenergic receptor. Nature of the data set: Radioligand binding, alpha1 adrenergic receptor. The conditions noted are these: 100 μM.
Data set [2] is described as follows: Phase 1 studies (safety, tolerability, pharmacokinetics). The format is in vivo.

The structures appear in SMILES notation.

The values that follow come from US20210340130A1, “Compositions and methods for treating attention deficit disorders” (priority 2016, published 2021).

Take `CN(C(=O)c1ccc2nonc2c1)C1CCOCC1` [CX1739, N-Methyl-N-tetrahydro-2H-pyran-4-yl-[2,1,3]-benzoxadiazole-5-carboxamide]: in the data set on Rat (Lister) (10 mg/kg), the “latency to correct responses” value is listed as “significantly reduced” and the omissions entry is given as “significant improvement”. Also, in the data set with Rat (Lister) (3 and 10 mg/kg ip), the accuracy of responding result is “significantly improved” and the “number of premature responses” value is “reduced”. In the data set with Rat (Lister) (IP, dose range 3-10 mg/kg), the “Minimum Effective Dose” value came out at 3 mg/kg. In data set [1], the “inhibition of binding of a reference ligand” value is reported as 67%.

On to `O=C(c1ccc2nonc2c1)N1CCOCC1` [CX717, 1-(benzofurazan-5-ylcarbonyl)morpholine], for which, in data set [2] (human), the absorption entry was “dose-proportional manner”. Further, the half-life in data set [2] (human, in vivo, read-out: elimination half-life (t1/2)) was 9 to 10 h. In addition, in data set [2] (human, in vivo, read-out: time-to-maximum concentration (tmax)), the Tmax is 4 to 5 h. Moreover, the “tolerability in healthy volunteers” value in data set [2] (in vivo) is “well-tolerated with no serious AEs”.
